The values that follow come from patent US20250145608A1, “KRAS DEGRADING COMPOUNDS COMPRISING ANNULATED 2-AMINO-3-CYANO THIOPHENES” (Boehringer Ingelheim Int'l GmbH Corp., priority 2021, published 2025).

SMILES strings stand for the structures.

Type in all cases: cell-based
One assay relates to SW620 cells. Kind of assay: SW620 cell proliferation assay (colorectal cancer, G12V), 5 days. To be noted: Homo sapiens, SW-620, 120 h. An outline of the steps: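 SW620 cells (2000/well, DMEM with 10% FCS) exposed to a logarithmic compound dilution series for 5 days. Viability by CellTiter-Glo luminescence as percent of DMSO control; IC50 from a four-parameter logistic fit.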

The subject of the next assay is AsPC-1 cells. Kind of assay: AsPC-1 CTG proliferation assay (120 h) (pancreatic cancer, G12D). To be noted: Homo sapiens, ASPC1, AsPC-1 proliferation. As to the method: AsPC-1 CTG Proliferation Assay (120 h) (Pancreatic Cancer, G12D)
The CTG assay is designed to measure quantitatively the proliferation of AsPC-1 cells (ATCC […]), using the CellTiter Glow Assay Kit (Promega G7571). Cells are grown in RPMI medium (ATCC) supplemented with Fetal Calf Serum (Life Technologies, Gibco BRL, Cat. No. 10270-106). On “day 0” 2000 AsPC-1 cells are seeded in 60 μL RPMI ATCC+10% FCS+ Penstrep in a 384-well plate, flat and clear bottom (Greiner, PNr. 781091). Cells are then incubated in the plates at 37° C. in a CO2 incubator overnight. On day 1, compounds (10 mM stock in DMSO) are added with the ECHO acoustic liquid handler system (Beckman Coulter), including DMSO controls. Plates are incubated for 120 h, and cell viability is measured using CellTiter-Glo luminescent cell viability reagent (Promega product code G7570). Viability (stated as percent of control) is defined as relative luminescence units RLU of each well divided by the RLU of cells in DMSO controls. IC50 values are determined from viability measurements by non-linear regression using a four-parameter model.

In the next assay the target is T1, KRAS4B G12D (Homo sapiens, UniProt P01116, G12D).
T1 construct: HiBit; expressed in transfected cells; host or cells: GP5d cells (ECACC 95090715), stably transduced with lentivirus, CMV promoter
T1 sequence (P01116 1-188 isoform P01116-2 G12D): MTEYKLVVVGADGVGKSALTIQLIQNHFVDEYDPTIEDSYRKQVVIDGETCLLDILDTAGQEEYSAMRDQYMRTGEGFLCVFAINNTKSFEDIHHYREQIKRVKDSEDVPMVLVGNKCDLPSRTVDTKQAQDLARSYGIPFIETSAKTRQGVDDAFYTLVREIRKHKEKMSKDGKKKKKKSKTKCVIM
Kind of assay: HiBit KRAS4B mutant spectrum degradation assay, KRAS4B G12D in GP5d cells (18 h). To be noted: KRAS mutation G12D. From the text: (§1) The therapeutically relevant mutant KRAS constructs (WT, G12C, G12D, G12V, G13D) were obtained by site directed mutagenesis using a KRAS4B WT cDNA construct as a template. GP5d cells (ECACC Cat. No. 95090715) were transduced with lentiviral vectors expressing mutant KRAS4B cDNA under control of a CMV promoter. Stably transduced cells were selected using a neomycin selectable marker encoded on the construct.
(§2) To assess PROTAC-mediated degradation of various KRAS mutants, GP5d cells stably transduced with KRAS4B constructs as described above were seeded at 25000 cells per well in 100 μL Dulbecco's Modified Eagle medium (Sigma cat. no. D6429) supplemented with 10% fetal calf serum into white bottom opaque 96 well plates (Perkin Elmer cat no. 5680). Plates were incubated at 37° C., 5% CO2 in a humidified incubator over night to allow the cells to adhere. […] Plates were further incubated at 37° C. for 18 hours. Following incubation, 100 μL per well Promega Nano-Glo HiBit lytic detection reagent mix (Promega Nano-Glo HiBit Lytic Detection System #N3050), prepared according to the manufacturer's instructions in the kit, were added. To allow for adequate cell lysis, plates were incubated on an orbital shaker for 15 min and further incubated 30 min at room temperature. Upon completion of cell lysis, luminescence was measured using an Envision plate reader using the Ultrasensitive Luminescence Protocol for 96 well plates. Luminescence levels were normalized by the values obtained with DMSO-treated samples and plotted as percent of DMSO control. DC50 values were computed using a four parametric logistic model and are reported in nM in Table 65 for representative example (Ex.) compounds of the invention. Dmax values represent the maximal extent of degradation observed and is stated as percent of control (% Ctrl.) treatments in Table 66 for representative example (Ex.) compounds of the invention.
On the technique in general: HiBiT is a short tag that completes a luciferase, so light tracks the accessible tagged protein.

The next assay deals with T2, KRAS4B G12V (Homo sapiens, UniProt P01116, G12V).
T2 construct: HiBit; expressed in transfected cells; host or cells: GP5d cells (ECACC 95090715), stably transduced with lentivirus, CMV promoter
T2 sequence (P01116 1-188 isoform P01116-2 G12V): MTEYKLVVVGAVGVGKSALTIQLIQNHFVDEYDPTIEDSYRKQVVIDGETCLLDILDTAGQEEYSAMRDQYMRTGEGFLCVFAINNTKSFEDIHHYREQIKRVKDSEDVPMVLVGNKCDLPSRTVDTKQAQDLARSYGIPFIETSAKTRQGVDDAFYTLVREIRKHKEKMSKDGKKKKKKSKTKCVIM
Kind of assay: HiBit KRAS4B mutant spectrum degradation assay, KRAS4B G12V in GP5d cells (18 h). To be noted: KRAS mutation G12V.
Text: as §1, §2

For a further assay, the system named is A375 cells. The assay is described as follows: A375 CTG proliferation assay (120 h) (melanoma, wt, B-Raf mutant, negative control). To be noted: Homo sapiens, A-375, negative control cell line. As to the method: A375 CTG Proliferation Assay (120 h) (Melanoma, Wt, B-Raf Mutant, Negative Control)
A375 cells (ATCC CRL-1619) are dispensed into 384-well plates, flat and clear bottom (Greiner, PNr. 781091) at a density of 300 cells per well in 60 μL DMEM (Sigma D6429)+10% Fetal Calf Serum (HyClone, PNr.: SH30084.03) and incubated at 37° C. in a CO2 incubator overnight. The next day, compounds (10 mM stock in DMSO) are added at logarithmic dose series using the HP Digital Dispenser D300 (Tecan), including DMSO controls. Plates are incubated for 120 h, and cell viability is measured using CellTiter-Glo luminescent cell viability reagent (Promega product code G7570). Viability (stated as percent of control) is defined as relative luminescence units RLU of each well divided by the RLU of cells in DMSO controls. IC50 values are determined from viability measurements by non-linear regression using a four-parameter model.

For the next assay, the system named is GP2D cells. Kind of assay: GP2D proliferation assay (120 h) (colorectal cancer, G12D). As for the experimental part: GP2D Proliferation Assay (120 h) (Colorectal Cancer, G12D)
GP2D cells (ATCC No. CRL-5807) are dispensed into white 384-well plates, flat and white bottom (Perkin Elmer, 6007680) at a density of 500 cells per well in 40 μl DMEM (Sigma, D6429)+1× GlutaMAX (Gibco, 35050038)+10% FCS (fetal calf serum). […] Compounds (10 mM stock in DMSO) are added at logarithmic dose series using the HP Digital Dispenser D300 (Tecan), including DMSO controls and normalizing for added DMSO. For the TO time point measurement, untreated cells are analyzed at the time of compound addition. Plates are incubated for 120 h, and cell viability is measured using CellTiter-Glo luminescent cell viability reagent (Promega product code G7570). Viability (stated as percent of control) is defined as relative luminescence units RLU of each well divided by the RLU of cells in DMSO controls. IC50 values are determined from viability measurements by non-linear regression using a four parameter model.

Take `Cc1ncsc1-c1ccc(CNC(=O)[C@@H]2C[C@@H](O)CN2C(=O)[C@H](c2cc(OCCCN3CCCN(c4nccc(-c5noc([C@@]6(C)CCCc7sc(N)c(C#N)c76)n5)n4)[C@@H](C)C3)no2)C(C)C)cc1` (single isomer, unassigned) [I-24]: the figures for the IC50 in the assay on SW620 cells and with AsPC-1 cells were 802 nM and 1800 nM, respectively.

As to `Cc1ncsc1-c1ccc(CNC(=O)[C@@H]2C[C@@H](O)CN2C(=O)[C@@H](c2cc(OCCCN3CCCN(c4nccc(-c5noc([C@@]6(C)CCCc7sc(N)c(C#N)c76)n5)n4)[C@@H](C)C3)no2)C(C)C)cc1` (single isomer, unassigned) [I-25], the figures for the DC50 at KRAS4B G12D and at KRAS4B G12V were 1.3 nM and 3.8 nM, respectively. Also, the figures for the “Dmax at 18 h” value on KRAS4B G12D and at KRAS4B G12V were 96 % Ctrl and 90.5 % Ctrl, respectively. Besides, the IC50 (usually the concentration at which inhibition is half-maximal) in the assay with SW620 cells is 9.88 nM; with AsPC-1 cells it was 93.4 nM.

Turning to `Cc1ncsc1-c1ccc(CNC(=O)[C@@H]2C[C@@H](O)CN2C(=O)[C@@H](c2cc(OCCCCN3CCCN(c4nccc(-c5noc([C@@]6(C)CCCc7sc(N)c(C#N)c76)n5)n4)[C@@H](C)C3)no2)C(C)C)cc1` (single isomer, unassigned) [I-27], the IC50 in the assay with A375 cells was at least 3000 nM; in the assay with GP2D cells it was 5.1 nM; in the assay on SW620 cells, 14.9 nM; in the assay on AsPC-1 cells, 144 nM. In addition, the DC50 (as a rule, the midpoint of the concentration-degradation curve) turned out to be 1.1 nM at KRAS4B G12D and 2.7 nM on KRAS4B G12V. In addition, the “Dmax at 18 h” value at KRAS4B G12D came out at 95 % Ctrl; on KRAS4B G12V it was 86 % Ctrl.

For `Cc1ncsc1-c1ccc([C@@H](NC(=O)[C@@H]2C[C@@H](O)CN2C(=O)[C@H](C(C)C)n2cc(OCCCCN3CCCN(c4nccc(-c5noc([C@@]6(C)CCCc7sc(N)c(C#N)c76)n5)n4)[C@@H](C)C3)nn2)[C@H](C)O)cc1` (single isomer, unassigned) [I-41], the IC50 is at least 3000 nM in the assay with A375 cells, 7.7 nM in the assay on GP2D cells, 10.5 nM in the assay with SW620 cells and 42 nM in the assay on AsPC-1 cells. Moreover, the values for the DC50 on KRAS4B G12D and on KRAS4B G12V were 1.3 nM and 2.5 nM, respectively. The “Dmax at 18 h” value on KRAS4B G12D amounted to 96.1 % Ctrl; on KRAS4B G12V it was 90.8 % Ctrl.

For the compound `Cc1ncsc1-c1ccc([C@@H](NC(=O)[C@@H]2C[C@@H](O)CN2C(=O)[C@H](C(C)C)n2cc(OCCCN3CCCN(c4nccc(-c5noc([C@@]6(C)CCCc7sc(N)c(C#N)c76)n5)n4)[C@@H](C)C3)nn2)[C@H](O)C(C)C)cc1` (single isomer, unassigned) [I-43], the IC50 with A375 cells is at least 3000 nM; in the assay with GP2D cells, 6.6 nM; in the assay on SW620 cells, 9.4 nM; in the assay with AsPC-1 cells, 52.1 nM. The DC50 at KRAS4B G12D amounted to 1.3 nM; on KRAS4B G12V, 2.6 nM. Besides, the “Dmax at 18 h” value on KRAS4B G12D stood at 95.8 % Ctrl; on KRAS4B G12V it was 89.4 % Ctrl.

For `Cc1ncsc1-c1ccc([C@@H](NC(=O)[C@@H]2C[C@@H](O)CN2C(=O)[C@H](C(C)C)n2cc(OCCCCN3CCCN(c4nccc(-c5noc([C@@]6(C)CCCc7sc(N)c(C#N)c76)n5)n4)[C@@H](C)C3)nn2)[C@H](O)C(C)C)cc1` (single isomer, unassigned) [I-45], the IC50 is at least 3000 nM in the assay on A375 cells, 9.4 nM with GP2D cells, 14.5 nM in the assay with SW620 cells and 51.4 nM in the assay on AsPC-1 cells.

Take `Cc1ncsc1-c1ccc(CNC(=O)[C@@H]2C[C@@H](O)CN2C(=O)C(c2cc(OCCCCN3CCCN(c4nccc(-c5cc([C@@]6(C)CCCc7sc(N)c(C#N)c76)on5)n4)[C@@H](C)C3)no2)C(C)C)cc1` (stereo partly drawn) [I-4]: the IC50 with SW620 cells was 53.4 nM; in the assay on AsPC-1 cells, 372 nM.

`CC(C)C(C(=O)N1C[C@H](O)C[C@H]1C(=O)NCc1ccc(C#N)cc1)c1cc(OCCCCN2CCCN(c3nccc(-c4noc([C@@]5(C)CCCc6sc(N)c(C#N)c65)n4)n3)[C@@H](C)C2)no1` (stereo partly drawn) [I-16]: the IC50 with A375 cells was at least 3000 nM; with GP2D cells, 33.3 nM; in the assay with SW620 cells, 37.1 nM; with AsPC-1 cells it was 169 nM.

As to `Cc1ncsc1-c1ccc([C@H](C)NC(=O)[C@@H]2C[C@@H](O)CN2C(=O)C(C(C)C)n2cc(OCCCCN3CCCN(c4nccc(-c5noc([C@@]6(C)CCCc7sc(N)c(C#N)c76)n5)n4)[C@@H](C)C3)nn2)cc1` (stereo partly drawn) [I-28], the IC50 is 1090 nM with A375 cells, 2.9 nM in the assay with GP2D cells, 13.2 nM with SW620 cells and 72 nM with AsPC-1 cells.

Regarding `Cc1ncsc1-c1ccc([C@H](CO)NC(=O)[C@@H]2C[C@@H](O)CN2C(=O)[C@H](C(C)C)n2cc(OCCCCN3CCCN(c4nccc(-c5noc([C@@]6(C)CCCc7sc(N)c(C#N)c76)n5)n4)[C@@H](C)C3)nn2)cc1` [I-29], the IC50 with A375 cells was at least 3000 nM; in the assay with GP2D cells, 8.5 nM; in the assay on SW620 cells, 26.4 nM; in the assay on AsPC-1 cells, 97.2 nM. The figures for the DC50 on KRAS4B G12D and on KRAS4B G12V were 1.5 nM and 3.5 nM, respectively. The “Dmax at 18 h” value at KRAS4B G12D stood at 96.0 % Ctrl; on KRAS4B G12V it was 90.5 % Ctrl.

On to `Cc1ncsc1-c1ccc([C@H](CO)NC(=O)[C@@H]2C[C@@H](O)CN2C(=O)[C@H](C(C)C)n2cc(OCCCC(C)N3CCCN(c4nccc(-c5noc([C@@]6(C)CCCc7sc(N)c(C#N)c76)n5)n4)[C@@H](C)C3)nn2)cc1` (stereo partly drawn) [I-30], for which the half-maximal inhibitory concentration (IC50) is at least 3000 nM in the assay with A375 cells, 6.4 nM in the assay with GP2D cells, 18 nM in the assay with SW620 cells and 69 nM with AsPC-1 cells. Further, the DC50 at KRAS4B G12D came out at 0.8 nM; at KRAS4B G12V, 2.2 nM. In addition, the “Dmax at 18 h” value stood at 96.1 % Ctrl on KRAS4B G12D and 91.0 % Ctrl at KRAS4B G12V.

For `Cc1ncsc1-c1ccc([C@H](CCO)NC(=O)[C@@H]2C[C@@H](O)CN2C(=O)[C@H](C(C)C)n2cc(OCCCCN3CCCN(c4nccc(-c5noc([C@@]6(C)CCCc7sc(N)c(C#N)c76)n5)n4)[C@@H](C)C3)nn2)cc1` [I-38], the IC50 in the assay with A375 cells was at least 3000 nM; with GP2D cells, 12.6 nM; with SW620 cells, 28.4 nM; in the assay with AsPC-1 cells, 128 nM.
